Measured values reported in patent US20020137929A1, “1 - (3-heterocyclylphenyl) isothiourea, -isourea, -guanidine and -amidine herbicidal agents” (Intellectual Property Department, BASF Aktiengesellschaft, priority 1998, published 2002).

How the values were obtained:
ZEAMX (Corn, Field) = assay: Preemergence herbicidal evaluation; format: in vivo, Zea mays; conditions: preemergence, rated 4-5 weeks after treatment, 0-9 scale
Procedure, shortened: (§1)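 Seeds were planted in potting soil in cups, then sprayed preemergence with the test compound in aqueous acetone at about 0.0156 to 0.500 kg per hectare. Cups were kept under greenhouse conditions and visually rated 4–5 weeks after treatment on a 0–9 scale against an untreated control.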

CYPIR (Rice Flatsedge) = assay: Postemergence weed control under flooded paddy conditions; format: in vivo, Cyperus iria; conditions: postemergence weeds, rated 3 to 4 weeks after treatment
Procedure, shortened: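 Containers holding 3–5 cm weeds and rice at 1.5–2.5 leaves are flooded to 1.5–3 cm above soil. Compound in 50/50 v/v aqueous/acetone is then added directly to the water, about 0.0313–0.500 kg/ha. Plants are kept in the greenhouse and rated 0–9 visually at 3–4 weeks.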

ABUTH (Velvetleaf) = assay: Preemergence herbicidal evaluation; format: in vivo, Abutilon theophrasti; conditions: preemergence, rated 4-5 weeks after treatment, 0-9 scale
Procedure, shortened: as §1

GALAP (Galium) = assay: Postemergence herbicidal evaluation; format: in vivo, Galium aparine; conditions: postemergence
Procedure, shortened: (§2)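 Herbicidal effect was judged by eye on a 0–9 scale covering stand, vigor, deformity, size and chlorosis, compared with controls, four to five weeks after seedlings about two weeks old were sprayed (40 psi, ~0.0156–0.500 kg/ha).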

MOOVA (Monochoria) = assay: Preemergence weed control under flooded paddy conditions; format: in vivo, Monochoria vaginalis; conditions: rated 3-4 weeks after treatment
Procedure, shortened: (§3)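 Flooded-pot preemergence screen with silt loam and seeds in the upper 0.5 cm. Dose about 0.0313 to 0.500 kg/ha, delivered into flood water; visual 0-9 score after 3 to 4 weeks.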

CASOB (Sicklepod) [1] = assay: Preemergence herbicidal evaluation; format: in vivo, Cassia obtusifolia; conditions: preemergence, rated 4-5 weeks after treatment, 0-9 scale
Procedure, shortened: as §1

[2] = tested on: IPOHE (Morningglory, Ivyleaf); assay: Postemergence herbicidal evaluation; format: in vivo, Ipomoea hederacea; conditions: postemergence
Procedure, shortened: as §2

[3] = tested on: TRZAWR (Wheat, Winter, cv Riband); assay: Preemergence herbicidal evaluation; format: in vivo, Triticum aestivum; conditions: preemergence, rated 4-5 weeks after treatment, 0-9 scale
Procedure, shortened: as §1

ECHCG (Barnyardgrass) = assay: Preemergence herbicidal evaluation; format: in vivo, Echinochloa crus-galli; conditions: preemergence, rated 4-5 weeks after treatment, 0-9 scale
Procedure, shortened: as §1

AMBEL (Ragweed, Common) = assay: Postemergence herbicidal evaluation; format: in vivo, Ambrosia artemisifolia; conditions: postemergence
Procedure, shortened: as §2

CASOB (Sicklepod) [4] = assay: Postemergence herbicidal evaluation; format: in vivo, Cassia obtusifolia; conditions: postemergence
Procedure, shortened: as §2

[5] = tested on: IPOHE (Morningglory, Ivyleaf); assay: Preemergence herbicidal evaluation; format: in vivo, Ipomoea hederacea; conditions: preemergence, rated 4-5 weeks after treatment, 0-9 scale
Procedure, shortened: as §1

[6] = tested on: SAGPY (Arrowhead (Pygmaea)); assay: Preemergence weed control under flooded paddy conditions; format: in vivo, Sagittaria pygmaea; conditions: rated 3-4 weeks after treatment
Procedure, shortened: as §3

[7] = tested on: GLXMAW (Soybean, Williams); assay: Preemergence herbicidal evaluation; format: in vivo, Glycine max, (L.) Merr. cv Williams; conditions: preemergence, rated 4-5 weeks after treatment, 0-9 scale
Procedure, shortened: as §1

SMILES: COC(=O)CC1SC(=Nc2cc(-n3c(=O)cc(C(F)(F)F)n(C)c3=O)c(F)cc2Cl)N(C)C1=O (centres unmarked) [Compound 88, Methyl 2-{{2-chloro-5-[3,6-dihydro-3-methyl-2,6-dioxo-4-(trifluoromethyl)-1(2H)-pyrimidinyl]-4-fluorophenyl}imino}-3-methyl-4-oxo-5-thiazolidineacetate]
- ZEAMX rating (ZEAMX (Corn, Field); 0.0156 kg/ha): 0.0
- ZEAMX rating (ZEAMX (Corn, Field); 0.0313 kg/ha): 0.0
- ZEAMX rating (ZEAMX (Corn, Field); 0.0625 kg/ha): 0.0
- ZEAMX rating (ZEAMX (Corn, Field); 0.1250 kg/ha): 6.0
- ZEAMX rating (ZEAMX (Corn, Field); 0.2500 kg/ha): 8.0
- Herbicidal rating CYPIR (CYPIR (Rice Flatsedge); Rate 0.0313 kg/ha): 0.0
- Herbicidal rating CYPIR (CYPIR (Rice Flatsedge); Rate 0.0625 kg/ha): 0.0
- Herbicidal rating CYPIR (CYPIR (Rice Flatsedge); Rate 0.1250 kg/ha): 0.0
- Herbicidal rating CYPIR (CYPIR (Rice Flatsedge); Rate 0.2500 kg/ha): 0.0
- ABUTH rating (ABUTH (Velvetleaf); 0.0156 kg/ha): 9.0
- ABUTH rating (ABUTH (Velvetleaf); 0.0313 kg/ha): 9.0
- ABUTH rating (ABUTH (Velvetleaf); 0.0625 kg/ha): 9.0
- ABUTH rating (ABUTH (Velvetleaf); 0.1250 kg/ha): 9.0
- ABUTH rating (ABUTH (Velvetleaf); 0.2500 kg/ha): 9.0
- GALAP herbicidal rating (GALAP (Galium); rate 0.0158 kg/ha): 4.0
- GALAP herbicidal rating (GALAP (Galium); rate 0.0315 kg/ha): 4.0
- GALAP herbicidal rating (GALAP (Galium); rate 0.0630 kg/ha): 4.0
- MOOVA herbicidal effect rating (MOOVA (Monochoria); 0.0313 kg/ha): 9.0
- MOOVA herbicidal effect rating (MOOVA (Monochoria); 0.0625 kg/ha): 9.0
- MOOVA herbicidal effect rating (MOOVA (Monochoria); 0.1250 kg/ha): 9.0
- MOOVA herbicidal effect rating (MOOVA (Monochoria); 0.2500 kg/ha): 9.0
- CASOB rating (CASOB (Sicklepod) [1]; 0.0156 kg/ha): 0.0
- CASOB rating (CASOB (Sicklepod) [1]; 0.0313 kg/ha): 0.0
- CASOB rating (CASOB (Sicklepod) [1]; 0.0625 kg/ha): 0.0
- CASOB rating (CASOB (Sicklepod) [1]; 0.1250 kg/ha): 3.0
- CASOB rating (CASOB (Sicklepod) [1]; 0.2500 kg/ha): 9.0
- IPOHE herbicidal rating ([2]; rate 0.0158 kg/ha): 9.0
- IPOHE herbicidal rating ([2]; rate 0.0315 kg/ha): 9.0
- IPOHE herbicidal rating ([2]; rate 0.0630 kg/ha): 9.0
- TRZAWR rating ([3]; 0.0156 kg/ha): 0.0
- TRZAWR rating ([3]; 0.0313 kg/ha): 0.0
- TRZAWR rating ([3]; 0.0625 kg/ha): 0.0
- TRZAWR rating ([3]; 0.1250 kg/ha): 3.0
- TRZAWR rating ([3]; 0.2500 kg/ha): 9.0
- ECHCG rating (ECHCG (Barnyardgrass); 0.0156 kg/ha): 0.0
- ECHCG rating (ECHCG (Barnyardgrass); 0.0313 kg/ha): 0.0
- ECHCG rating (ECHCG (Barnyardgrass); 0.0625 kg/ha): 0.0
- ECHCG rating (ECHCG (Barnyardgrass); 0.1250 kg/ha): 0.0
- ECHCG rating (ECHCG (Barnyardgrass); 0.2500 kg/ha): 2.0
- AMBEL herbicidal rating (AMBEL (Ragweed, Common); rate 0.0158 kg/ha): 9.0
- AMBEL herbicidal rating (AMBEL (Ragweed, Common); rate 0.0315 kg/ha): 9.0
- AMBEL herbicidal rating (AMBEL (Ragweed, Common); rate 0.0630 kg/ha): 9.0
- CASOB herbicidal rating (CASOB (Sicklepod) [4]; rate 0.0158 kg/ha): 0.0
- CASOB herbicidal rating (CASOB (Sicklepod) [4]; rate 0.0315 kg/ha): 3.0
- CASOB herbicidal rating (CASOB (Sicklepod) [4]; rate 0.0630 kg/ha): 3.0
- IPOHE rating ([5]; 0.0156 kg/ha): 0.0
- IPOHE rating ([5]; 0.0313 kg/ha): 0.0
- IPOHE rating ([5]; 0.0625 kg/ha): 0.0
- IPOHE rating ([5]; 0.1250 kg/ha): 9.0
- IPOHE rating ([5]; 0.2500 kg/ha): 9.0
- SAGPY herbicidal effect rating ([6]; 0.0313 kg/ha): 6.0
- SAGPY herbicidal effect rating ([6]; 0.0625 kg/ha): 9.0
- SAGPY herbicidal effect rating ([6]; 0.1250 kg/ha): 9.0
- SAGPY herbicidal effect rating ([6]; 0.2500 kg/ha): 9.0
- GLXMAW rating ([7]; 0.0156 kg/ha): 0.0
- GLXMAW rating ([7]; 0.0313 kg/ha): 0.0
- GLXMAW rating ([7]; 0.0625 kg/ha): 0.0
- GLXMAW rating ([7]; 0.1250 kg/ha): 4.0
- GLXMAW rating ([7]; 0.2500 kg/ha): 9.0
